Where two headings read alike, the source gives them in different places.
Key:
[1] = system: Enterococcus faecium EFM.14 (ATCC 6569); assay type: cell-based
Procedure, shortened: (§1)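 Susceptibility is measured by modified CLSI broth microdilution using calcium-supplemented Mueller Hinton broth (50 mg/L) and an inoculum of 5×10^5 bacteria. MIC values in μg/mL mark the lowest concentration that leaves no visible turbidity.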

[2] = system: Enterococcus faecium EFM.384, Daptomycin resistant mutant (14-A); assay type: cell-based; conditions: MHBc with 50 mg/L calcium, 18-20 hours at 37° C.
Procedure, shortened: as §1

[3] = system: Enterococcus faecalis EFS.312, Daptomycin resistant mutant (EFA); assay type: cell-based; conditions: MHBc with 50 mg/L calcium, 18-20 hours at 37° C.
Procedure, shortened: as §1

[4] = system: Staphylococcus aureus SAU.399 (ATCC 43300), Methicillin and Oxacillin Resistant; assay type: cell-based
Procedure, shortened: as §1

[5] = system: Staphylococcus aureus SAU.42 (ATCC 29213); assay type: cell-based
Procedure, shortened: as §1

[6] = system: Enterococcus faecalis EFS.201 (ATCC 49452); assay type: cell-based
Procedure, shortened: as §1

[7] = system: Staphylococcus aureus SAU.278, Daptomycin resistant mutant (D10); assay type: cell-based; conditions: MHBc with 50 mg/L calcium, 18-20 hours at 37° C.
Procedure, shortened: as §1

[8] = system: Clostridium difficile
[9] = MHBc with 50 mg/L calcium, 18-20 hours at 37° C.

Row | Structure (SMILES) | Efm14 MIC ([1]; ATCC 6569) [µg/mL] | Efm384 MIC [2] [µg/mL] | Efs312 MIC [3] [µg/mL] | Sa399 MIC ([4]; ATCC 43300) [µg/mL] | Sa42 MIC ([5]; ATCC 29213) [µg/mL] | Efs201 MIC ([6]; ATCC 49452) [µg/mL] | Sa278 MIC [7] [µg/mL] | C. diff MIC90 [8] [µg/mL] | Efm14 MIC [1, 9] [µg/mL] | Sa399 MIC [4, 9] [µg/mL] | Sa42 MIC [5, 9] [µg/mL] | Efs201 MIC [6, 9] [µg/mL]
1 | CC(C)CCCCCCCCCCC(=O)N[C@@H](Cc1c[nH]c2ccccc12)C(=O)N[C@H](CC(N)=O)C(=O)N[C@@H](CC(=O)O)C(=O)N[C@@H]1C(=O)NCC(=O)N[C@@H](CCCN)C(=O)N[C@@H](CC(=O)O)C(=O)N[C@H](C)C(=O)N[C@@H](CC(=O)O)C(=O)NCC(=O)N[C@H](CO)C(=O)N[C@@H]([C@H](C)CC(=O)O)C(=O)N[C@@H](CC(=O)c2ccccc2N)C(=O)O[C@@H]1C [Compound 11] | 1 | 4 | 16 | 0.25 | 0.125 | 1 | 0.5 | 1 | – | – | – | –
2 | CCCC1CCC(c2ccc(C(=O)N[C@@H](Cc3c[nH]c4ccccc34)C(=O)N[C@H](CC(N)=O)C(=O)N[C@@H](CC(=O)O)C(=O)N[C@@H]3C(=O)NCC(=O)N[C@@H](CCCN)C(=O)N[C@@H](CC(=O)O)C(=O)N[C@H](C)C(=O)N[C@@H](CC(=O)O)C(=O)NCC(=O)N[C@H](CO)C(=O)N[C@@H]([C@H](C)CC(=O)O)C(=O)N[C@@H](CC(=O)c4ccccc4N)C(=O)O[C@@H]3C)cc2)CC1 (single isomer, unassigned) [53 isomer II] | 1 | 4 | 4 | 1 | 0.5 | 1 | 2 | 1 | – | – | – | –
3 | CCCCCCCc1csc(C(=O)N[C@@H](Cc2c[nH]c3ccccc23)C(=O)N[C@H](CC(N)=O)C(=O)N[C@@H](CC(=O)O)C(=O)N[C@@H]2C(=O)NCC(=O)N[C@@H](CCCN)C(=O)N[C@@H](CC(=O)O)C(=O)N[C@H](C)C(=O)N[C@@H](CC(=O)O)C(=O)NCC(=O)N[C@H](CO)C(=O)N[C@@H]([C@H](C)CC(=O)O)C(=O)N[C@@H](CC(=O)c3ccccc3N)C(=O)O[C@@H]2C)c1 [Compound 43, N-(4-heptylthiophene-2-carbonyl)-L-tryptophyl-D-asparaginyl-L-α-aspartyl-L-threonylglycyl-L-ornithyl-L-α-aspartyl-D-alanyl-L-α-aspartylglycyl-D-seryl-(3R)-3-methyl-L-α-glutamyl-(αS)-α,2-diamino-γ-oxobenzenebutanoic acid (13→4)-lactone] | 1 | 16 | 32 | 0.5 | 0.125 | 1 | 1 | 2 | – | – | – | –
4 | CCCCCCCCCC(C)NC(=O)N[C@@H](Cc1c[nH]c2ccccc12)C(=O)N[C@H](CC(N)=O)C(=O)N[C@@H](CC(=O)O)C(=O)N[C@@H]1C(=O)NCC(=O)N[C@@H](CCCN)C(=O)N[C@@H](CC(=O)O)C(=O)N[C@H](C)C(=O)N[C@@H](CC(=O)O)C(=O)NCC(=O)N[C@H](CO)C(=O)N[C@@H]([C@H](C)CC(=O)O)C(=O)N[C@@H](CC(=O)c2ccccc2N)C(=O)O[C@@H]1C (single isomer, unassigned) [14 isomer II] | 0.25 | 8 | 16 | 0.25 | 0.25 | 0.5 | 1 | 2 | – | – | – | –
5 | CCCCCOc1ccc(/C=C/C(=O)N[C@@H](Cc2c[nH]c3ccccc23)C(=O)N[C@H](CC(N)=O)C(=O)N[C@@H](CC(=O)O)C(=O)N[C@@H]2C(=O)NCC(=O)N[C@@H](CCCN)C(=O)N[C@@H](CC(=O)O)C(=O)N[C@H](C)C(=O)N[C@@H](CC(=O)O)C(=O)NCC(=O)N[C@H](CO)C(=O)N[C@@H]([C@H](C)CC(=O)O)C(=O)N[C@@H](CC(=O)c3ccccc3N)C(=O)O[C@@H]2C)cc1 [Compound 41] | – | >32 | >32 | – | – | – | 2 | 4 | 8 | 2 | 4 | 4
6 | CCCCCCCCCCCCC(=O)N[C@@H](Cc1c[nH]c2ccccc12)C(=O)N[C@H](CC(N)=O)C(=O)N[C@@H](CC(=O)O)C(=O)N[C@@H]1C(=O)NCC(=O)N[C@@H](CCCN)C(=O)N[C@@H](CC(=O)O)C(=O)N[C@H](C)C(=O)N[C@@H](CC(=O)O)C(=O)NCC(=O)N[C@H](CO)C(=O)N[C@@H]([C@H](C)CC(=O)O)C(=O)N[C@@H](CC(=O)c2ccccc2N)C(=O)O[C@@H]1C [Compound 5] | 0.5 | 8 | 8 | 0.5 | 0.5 | 0.5 | 2 | 8 | – | – | – | –
7 | C[C@H](CC(=O)O)[C@@H]1NC(=O)[C@@H](CO)NC(=O)CNC(=O)[C@H](CC(=O)O)NC(=O)[C@@H](C)NC(=O)[C@H](CC(=O)O)NC(=O)[C@H](CCCN)NC(=O)CNC(=O)[C@@H](NC(=O)[C@H](CC(=O)O)NC(=O)[C@@H](CC(N)=O)NC(=O)[C@H](Cc2c[nH]c3ccccc23)NC(=O)C2(c3ccc(Cl)cc3)CCCCC2)[C@@H](C)OC(=O)[C@H](CC(=O)c2ccccc2N)NC1=O [Compound 72] | >32 | >32 | >32 | >32 | >32 | >32 | >32 | 32 | – | – | – | –
8 | CCc1ccc(CCC(=O)N[C@@H](Cc2c[nH]c3ccccc23)C(=O)N[C@H](CC(N)=O)C(=O)N[C@@H](CC(=O)O)C(=O)N[C@@H]2C(=O)NCC(=O)N[C@@H](CCCN)C(=O)N[C@@H](CC(=O)O)C(=O)N[C@H](C)C(=O)N[C@@H](CC(=O)O)C(=O)NCC(=O)N[C@H](CO)C(=O)N[C@@H]([C@H](C)CC(=O)O)C(=O)N[C@@H](CC(=O)c3ccccc3N)C(=O)O[C@@H]2C)cc1 [Compound 29] | >32 | >32 | >32 | 8 | 8 | >32 | >32 | 16 | – | – | – | –
9 | CCCCCCCCCC(=O)N[C@@H](Cc1c[nH]c2ccccc12)C(=O)N[C@H](CC(N)=O)C(=O)N[C@@H](CC(=O)O)C(=O)N[C@@H]1C(=O)NCC(=O)N[C@@H](CCCN)C(=O)N[C@@H](CC(=O)O)C(=O)N[C@H](C)C(=O)N[C@@H](CC(=O)O)C(=O)NCC(=O)N[C@H](CO)C(=O)N[C@@H]([C@H](C)CC(=O)O)C(=O)N[C@@H](CC(=O)c2ccccc2N)C(=O)O[C@@H]1C [Daptomycin, reference compound] | 4 | >32 | >32 | 0.5 | 0.5 | 2 | 8 | 2 | – | – | – | –
10 | C[C@H](CC(=O)O)[C@@H]1NC(=O)[C@@H](CO)NC(=O)CNC(=O)[C@H](CC(=O)O)NC(=O)[C@@H](C)NC(=O)[C@H](CC(=O)O)NC(=O)[C@H](CCCN)NC(=O)CNC(=O)[C@@H](NC(=O)[C@H](CC(=O)O)NC(=O)[C@@H](CC(N)=O)NC(=O)[C@H](Cc2c[nH]c3ccccc23)NC(=O)CCCCCC2CCCCC2)[C@@H](C)OC(=O)[C@H](CC(=O)c2ccccc2N)NC1=O [Compound 26] | 2 | 16 | >32 | 0.5 | 1 | 1 | 2 | 2 | – | – | – | –

Source: patent US20150337013A1, “NOVEL ANTIBACTERIAL AGENTS FOR THE TREATMENT OF GRAM POSITIVE INFECTIONS” (priority 2008, published 2015)
